Results: BindingDB's records for doi:10.1016/s0960-894x(99)00335-2 (Merck Research Laboratories, 1999)

Assay: Concentration required for inhibition of serine/threonine protein phosphatase calcineurin (CAN)

IC50 [nM] | SMILES
14 | CC[C@@H]1/C=C(\C)C[C@H](C)C[C@H](OC)[C@H]2O[C@@](O)(C(=O)C(=O)N3CCCC[C@H]3C(=O)O[C@H](/C(C)=C/[C@@H]3CC[C@@H](OCCCc4ccccc4)[C@H](OC)C3)[C@H](C)[C@@H](O)CC1=O)[C@H](C)C[C@@H]2OC [C32-O-Phenalkyl ether derivative of Ascomycin]
7.2 | CC[C@@H]1/C=C(\C)C[C@H](C)C[C@H](OC)[C@H]2O[C@@](O)(C(=O)C(=O)N3CCCC[C@H]3C(=O)O[C@H](/C(C)=C/[C@@H]3CC[C@@H](OCCc4ccccc4)[C@H](OC)C3)[C@H](C)[C@@H](O)CC1=O)[C@H](C)C[C@@H]2OC [C32-O-Phenalkyl ether derivative of Ascomycin]
